In assay [1] the test system is serum calcium concentration.
Description: Biological Assay Of Calcitonin Analogs In Vivo
Rats were divided into four groups of seven animals, and each group was assigned at random to a dose of standard or test solution. Low and high doses were chosen from the linear portion of the dose-response curve. For the salmon calcitonin standard, the values were 0.7 and 2.1 ng. peptide/100 g. body weight (BW). This dose approximates 3 and 9 MU/100 g. BW. Peptides were given by subcutaneous injection (0.2 ml/100 g. BW) and blood was withdrawn 1 hour later for serum calcium determination. Sera are processed and analyzed within two hours of collection. Results were analyzed within two hours of collection.
The conditions of assay [2]: literature value, Experientia 32(9), 1104-1106 (1976); cited from earlier work.

Where a SMILES comes first, the peptide text is derived from it. Bridges are numbered along the chain shown (N, C = ends).

Regarding `CC(C)C[C@H](NC(=O)[C@H](CCCCN)NC(=O)CNC(=O)[C@H](CC(C)C)NC(=O)[C@@H](NC(=O)[C@@H]1CSSC[C@H](N)C(=O)N[C@@H](CO)C(=O)N[C@@H](CC(N)=O)C(=O)N[C@@H](CC(C)C)C(=O)N[C@@H](CO)C(=O)N[C@@H]([C@@H](C)O)C(=O)N1)C(C)C)C(=O)N[C@@H](CO)C(=O)N[C@@H](CCC(N)=O)C(=O)N[C@@H](CCC(=O)O)C(=O)N[C@@H](CC(C)C)C(=O)N[C@@H](Cc1c[nH]cn1)C(=O)N[C@@H](CCCCN)C(=O)N[C@H](C(=O)N[C@@H](Cc1ccc(O)cc1)C(=O)N1CCC[C@H]1C(=O)N[C@@H](CCCNC(=N)N)C(=O)N[C@H](C(=O)N[C@@H](CC(N)=O)C(=O)N[C@H](C(=O)NCC(=O)N[C@@H](CO)C(=O)NCC(=O)N[C@H](C(=O)N1CCC[C@H]1C(N)=O)[C@@H](C)O)[C@@H](C)O)[C@@H](C)O)[C@@H](C)O` [des-Leu^19 -Gln^20 -SCT, des-19-leucine, 20-glutamine-salmon calcitonin] (H-CSNLSTCVLGKLSQELHKTYPRTNTGSGTP-NH2; disulfide 1-7), the biological potency in assay [1] (rat, in vivo, sc) was found to be 6900 IU/mg. Regarding `CC(C)C[C@H](NC(=O)[C@H](CCCCN)NC(=O)CNC(=O)[C@H](CC(C)C)NC(=O)[C@@H](NC(=O)[C@@H]1CSSC[C@H](N)C(=O)N[C@@H](CO)C(=O)N[C@@H](CC(N)=O)C(=O)N[C@@H](CC(C)C)C(=O)N[C@@H](CO)C(=O)N[C@@H]([C@@H](C)O)C(=O)N1)C(C)C)C(=O)N[C@@H](CO)C(=O)N[C@@H](CCC(N)=O)C(=O)N[C@@H](CCC(=O)O)C(=O)N[C@@H](CC(C)C)C(=O)N[C@@H](Cc1c[nH]cn1)C(=O)N[C@@H](CCCCN)C(=O)N[C@@H](CC(C)C)C(=O)N[C@@H](CCC(N)=O)C(=O)N[C@H](C(=O)N[C@@H](Cc1ccc(O)cc1)C(=O)N1CCC[C@H]1C(=O)N[C@@H](CCCNC(=N)N)C(=O)N[C@H](C(=O)N[C@@H](CC(N)=O)C(=O)N[C@H](C(=O)NCC(=O)N[C@@H](CO)C(=O)NCC(=O)N[C@H](C(=O)N1CCC[C@H]1C(N)=O)[C@@H](C)O)[C@@H](C)O)[C@@H](C)O)[C@@H](C)O` [standard salmon calcitonin, salmon calcitonin], the “potency content of the standard” value in assay [1] (standard used in the assay, independently determined) is “greater than 4,000 IU/mg”.

With “(1,7-α-L-aminosuberic acid)eel calcitonin”, the hypocalcemic potency result in assay [2] was “about 3400 IU/mg”.

Turning to “eel calcitonin [synthetic eel calcitonin]”, in assay [2], the hypocalcemic potency entry is “around 4300 IU/mg”.

Source of the values: patent US4732969A, “Des-19-leucine, 20-glutamine-calcitonin” (Armour Pharmaceutical Corporation, priority 1986, dated 1988).
